{
  "source": "patent US11932607B1",
  "about": "“4-(2,4,5-tris(4-chlorophenyl)-1H-imidazol-1-yl)benzoic acid as an antimicrobial compound” (KING FAISAL UNIVERSITY, priority 2023, dated 2024)",
  "type_in_all_cases": "cell-based",
  "key": {"[1]": {"system": "Chrysosporium keratinophilum", "test": "Agar plate disc-diffusion, antifungal activity (inhibition zone)", "conditions": "fungal, DMSO control zone subtracted", "experimental": "(§1) The agar plate disc-diffusion method was applied. […] The discs were then placed onto the surface of agar plates (nutrient agar for bacteria and Sabouraud's dextrose agar for fungi) seeded with the test organism. Each plate contained 15 mL of the agar medium, previously seeded with 0.2 mL of the broth culture of each organism pregrown for 18 hours. The plates were incubated at 37° C. for 48 hours, and 72 hours for fungi. The inhibition zones was measured in mm. Discs impregnated with DMSO were used as a control, and its inhibition zone was subtracted from the tested compound actual inhibition zone."}, "Aspergillus flavus": {"system": "Aspergillus flavus", "test": "Agar plate disc-diffusion, antifungal activity (inhibition zone)", "conditions": "fungal, DMSO control zone subtracted", "experimental": "as §1"}, "Escherichia coli": {"system": "Escherichia coli", "test": "Agar plate disc-diffusion, antibacterial activity (inhibition zone)", "conditions": "Gram negative, DMSO control zone subtracted", "experimental": "as §1"}, "Pseudomonas aeruginosa": {"system": "Pseudomonas aeruginosa", "test": "Agar plate disc-diffusion, antibacterial activity (inhibition zone)", "conditions": "Gram negative, DMSO control zone subtracted", "experimental": "as §1"}, "Bacillus cereus": {"system": "Bacillus cereus", "test": "Agar plate disc-diffusion, antibacterial activity (inhibition zone)", "conditions": "Gram positive, DMSO control zone subtracted", "experimental": "as §1"}, "Staphylococcus aureus": {"system": "Staphylococcus aureus", "test": "Agar plate disc-diffusion, antibacterial activity (inhibition zone)", "conditions": "Gram positive, DMSO control zone subtracted", "experimental": "as §1"}, "[2]": {"conditions": "A = concentration of comp. = 10,000 μL"}, "[3]": {"conditions": "B = concentration of comp. = 30,000 μL"}, "[4]": {"conditions": "C = concentration of comp. = 50,000 μL"}},
  "data": [
    {"smiles": "O=C(O)c1ccc(-n2c(-c3ccc(Cl)cc3)nc(-c3ccc(Cl)cc3)c2-c2ccc(Cl)cc2)cc1", "note": "[V, 4-(2,4,5-tris(4-chlorophenyl)-1H-imidazol-1-yl)benzoic acid]", "values": [
      {"measurement": "inhibition zone, Chrysosporium keratinophilum, A", "setting": "[1]; [2]", "value": 25, "unit": "mm"},
      {"measurement": "inhibition zone, Chrysosporium keratinophilum, B", "setting": "[1]; [3]", "value": 28, "unit": "mm"},
      {"measurement": "inhibition zone, Chrysosporium keratinophilum, C", "setting": "[1]; [4]", "value": 48, "unit": "mm"},
      {"measurement": "inhibition zone, Aspergillus flavus, A", "setting": "Aspergillus flavus; [2]", "value": 21, "unit": "mm"},
      {"measurement": "inhibition zone, Aspergillus flavus, B", "setting": "Aspergillus flavus; [3]", "value": 24, "unit": "mm"},
      {"measurement": "inhibition zone, Aspergillus flavus, C", "setting": "Aspergillus flavus; [4]", "value": 35, "unit": "mm"},
      {"measurement": "inhibition zone, Escherichia coli, A", "setting": "Escherichia coli; [2]", "value": 25, "unit": "mm"},
      {"measurement": "inhibition zone, Escherichia coli, B", "setting": "Escherichia coli; [3]", "value": 28, "unit": "mm"},
      {"measurement": "inhibition zone, Escherichia coli, C", "setting": "Escherichia coli; [4]", "value": 39, "unit": "mm"},
      {"measurement": "inhibition zone, Pseudomonas aeruginosa, A", "setting": "Pseudomonas aeruginosa; [2]", "value": 24, "unit": "mm"},
      {"measurement": "inhibition zone, Pseudomonas aeruginosa, B", "setting": "Pseudomonas aeruginosa; [3]", "value": 27, "unit": "mm"},
      {"measurement": "inhibition zone, Pseudomonas aeruginosa, C", "setting": "Pseudomonas aeruginosa; [4]", "value": 32, "unit": "mm"},
      {"measurement": "inhibition zone, Bacillus Cereus, A", "setting": "Bacillus cereus; [2]", "value": 24, "unit": "mm"},
      {"measurement": "inhibition zone, Bacillus Cereus, B", "setting": "Bacillus cereus; [3]", "value": 27, "unit": "mm"},
      {"measurement": "inhibition zone, Bacillus Cereus, C", "setting": "Bacillus cereus; [4]", "value": 35, "unit": "mm"},
      {"measurement": "inhibition zone, Staphylococcus aureus, A", "setting": "Staphylococcus aureus; [2]", "value": 15, "unit": "mm"},
      {"measurement": "inhibition zone, Staphylococcus aureus, B", "setting": "Staphylococcus aureus; [3]", "value": 22, "unit": "mm"},
      {"measurement": "inhibition zone, Staphylococcus aureus, C", "setting": "Staphylococcus aureus; [4]", "value": 26, "unit": "mm"}
    ]}
  ]
}
